Assay results published in patent publication US9399032B2, “Methods and compositions for treating degenerative and ischemic disorders” (The General Hospital Corporation, priority 2009, dated 2016).
Where a name gives a salt, the structure may show the parent alone. Read-outs that look alike come from different tables or passages of the source.

Tests used:
[1] = system: isolated mitochondria; assay: Effect of phosphoethanolamine on uncoupled respiration of isolated mitochondria; format: biochemical; conditions: ~1 min incubation, 1 μM CCCP
Method: Mitochondria were isolated from C57BL/6 mouse kidneys by differential centrifugation and resuspended in experimental buffer to a final concentration of 0.15 mg/ml. Mootha et al., Am J Physiol 272:H769 (1997). State 2 respiration was initiated with the addition of 2.5 mM glutamate and 2.5 mM malate. State 3 respiration was initiated with the addition of 50 nmoles ADP. […] O2 consumption was monitored with a Fiber Optic Oxygen sensor probe from Ocean Optics, and NADH (endogenous, 370±7 nm excitation, 440±4 nm emission) and membrane potential (1.25 μM TMRM, 546±7 nm excitation, 590±4 nm emission) were measured with a Perkin-Elmer LS50B fluorimeter. A representative trace is shown from 6 independent experiments. 1M stock of phosphoethanolamine (Sigma P0503) was made in sterile water and pH was adjusted to 7.4 by 1N potassium hydroxide solution.
The upregulation of phosphoethanolamine was confirmed by orthogonal chromatography, as well as via ^31P-NMR. […] Previous studies have shown that phosphoethanolamine can be elevated in tumor cells, and that ethanolamine and PEA can directly silence mitochondrial OXPHOS. Zhu et al., J Lipid Res 49: 2197 (2008); and Modica-Napolitano et al., Biol Psychiatry 55:273 (2004). […]

[2] = system: AMPK; assay: Western blot detection of AMPK phosphorylation; format: cell-based; conditions: C2C12 myotubes, 24 hours of treatment
Method: The ability of meclizine, S-meclizine and R-meclizine to activate AMPK in C2C12 myotubes was also evaluated using Western blot detection of AMPK phosphorylation in C2C12 myotubes following 24 hours of treatment with R-meclizine (R-Mec), S-meclizine (S-Mec) and the racemic mixture (Rac-Mec).

[3] = target: human H 1 receptor (Homo sapiens, UniProt P35367); assay: H1 receptor competitive binding assay with [3H]pyrilamine; conditions: 3 nM [3H]pyrilamine
Chain of human H 1 receptor (P35367 whole entry): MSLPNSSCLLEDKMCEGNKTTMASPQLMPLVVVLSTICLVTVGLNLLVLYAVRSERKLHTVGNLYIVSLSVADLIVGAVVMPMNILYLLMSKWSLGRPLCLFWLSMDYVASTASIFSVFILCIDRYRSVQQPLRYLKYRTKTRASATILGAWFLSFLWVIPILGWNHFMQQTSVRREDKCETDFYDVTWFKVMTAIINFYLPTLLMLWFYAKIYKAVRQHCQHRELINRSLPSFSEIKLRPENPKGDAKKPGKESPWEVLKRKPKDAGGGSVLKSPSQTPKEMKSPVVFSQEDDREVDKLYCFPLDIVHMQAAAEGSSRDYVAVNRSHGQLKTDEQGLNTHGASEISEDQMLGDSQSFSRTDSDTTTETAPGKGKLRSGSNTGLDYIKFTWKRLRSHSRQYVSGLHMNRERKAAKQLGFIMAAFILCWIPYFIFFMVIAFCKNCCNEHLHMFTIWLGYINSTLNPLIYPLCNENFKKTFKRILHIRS
Method: The ability of each enantiomer to bind to the H1 receptor was evaluated using a competitive binding experiment with the racemate. In vitro binding of R-meclizine (R-Mec) and S-meclizine (S-Mec) to human H 1 receptor was determined by competitive binding assays in the presence of 3 nM [3H]pyrilamine. Non-specific binding was determined in the presence of excess (1 μM) unlabeled Pyrilamine. IC50 were determined by non-linear regression analysis of the competition curves.

[4] = system: purified recombinant PCYT2; assay: PCYT2 enzyme assay in vitro; format: biochemical; conditions: 50-1000 μM meclizine or 50-600 μM S-meclizine
Method: FIGS. 16 C-D are line graphs showing that PCYT2 (CTP:phosphoethanolamine cytidylyltransferase 2) is a target of meclizine (16C) and S-meclizine (16D). PCYT2 enzyme assays were carried out in vitro with purified recombinant PCYT2 in the presence of 50-1000 μM meclizine or 50-600 μM of S-meclizine.
CTP:Phosphoethanolamine Cytidylyltransferase (PCYT2) catalyzes the formation of CDP-ethanolamine, which is often the rate regulatory step in the PE-Kennedy pathway. See, e.g., Fullerton et al., J Biol Chem 18; 284(38):25704-13 (2009). To determine whether meclizine affects PCYT2 activity, PCYT2 (CTP:phosphoethanolamine cytidylyltransferase 2) enzyme assays were carried out in vitro with purified recombinant PCYT2 in the presence of 50-1000 μM meclizine or 50-600 μM of S-meclizine. For additional details see Zhu et al., J Lipid Res 49: 2197 (2008).

[5] = system: STHdhQ111/111 striatal cells; assay: Viability of mutant huntingtin striatal cells after serum withdrawal (CellTiter-Glo); format: cell-based, murine; conditions: serum free media, 24 hours
Method: Wherever indicated, mutant (STHdh^Q111/111) striatal cells were grown in serum free media for ˜24 hours before ATP measurement. Luminescence was measured in DTX880 multimode detector. Multiple concentrations (between 100 μM and 0.5 μM) of rotenone, antimycin, oligomycin, meclizine, hydroxyzine (Spectrum chemical), thiethylperazine (Prestwick), cyproheptadine (Sigma), pyrilamine (Spectrum chemical), tripelennamine (Spectrum chemical), diphenhydramine (Spectrum chemical), clemastine (Prestwick), bromopheniramine (Spectrum chemical), pheniramine (Spectrum chemical), promethazine (MSDiscovery 01500510), atropine (Sigma), and scopolamine (Sigma) were tested for their protective effect on STHdh^Q111/111 cells in serum free media. The dose which conferred maximum protection is shown. Luminescence was measured in DTX880 multimode detector.
Although it is not necessary to understand the mechanism of an invention, it is believed that the observed cell survival may be due to suppressed apoptosis based on caspase 3 and 7 cleavage. Improved cell viability was confirmed by microscopy.

[6] = system: C2C12 myotubes; assay: [3H]-2-deoxyglucose uptake; format: cell-based; conditions: 50 micromolar, four hours
Method: Fully differentiated C2C12 myotubes were subjected to a glucose uptake protocol, as follows. Briefly, C2C12 myotube cells were incubated for four hours in serum-free media containing either 0.1% DMSO as a control, 50 micromolar meclizine, 50 micromolar S-meclizine, or 2 mM metformin. Cells were subsequently incubated for thirty minutes in serum and glucose free buffer and then transitioned to buffer containing [3H]-2-deoxyglucose for five minutes. After multiple wash steps, cells were lysed and the lysate was subjected to scintillation counting to quantify uptake. Data were prepared as raw counts per minute, which is proportional to 2-deoxyglucose uptake.

[7] = system: Adult rat ventricular cardiomyocytes; assay: Simulated ischemia-reperfusion injury in isolated cardiomyocytes; format: cell-based; conditions: 60 minutes ischemia, 30 minutes reperfusion
Method: The ability of meclizine to protect isolated cardiomyocytes and isolated hearts from ischemic injury was investigated as follows Adult rat ventricular cardiomyocytes were isolated by endotoxin-free collagenase perfusion, and the simulated ischemia-reperfusion injury was performed as previously described (Wojtovich and Brookes, Basic Res. Cardiol., 104:121-129 (2009)). Control cells were exposed to DMSO for 20 minutes. Test cells were exposed to either vehicle or doses of meclizine for 20 minutes, which was washed out before being subjected to ischemia for 60 minutes followed by reperfusion for 30 minutes under normoxic conditions in normoxic glucose-replete buffer at pH 7.4. Cell viability was assayed by Trypan blue exclusion. VO2 was assessed by isolating mitochondria and measuring both respirating cells and mitochondria using a Clark oxygen electrode (Wojtovich, supra).

[8] = system: C. elegans expressing 128Q huntingtin fragment in touch receptor neurons; conditions: even lower doses; cited from earlier work
[9] = system: MCH58 fibroblasts; conditions: 72 h, 10 µM
Method: (§1) The assay included monitoring or measuring cell growth in cells that are grown in glucose (which allows the cell to utilize glycolysis) or in galactose (which switches the cell energy production from glycolysis to the OXPHOS pathway).
(§2) The high glucose medium was replaced with 10 mM glucose or 10 mM galactose wherever indicated. All media contained 1 mM pyruvate and 4 mM glutamine.
(§3) Cell number quantification high throughput assays were performed as follows. […] 24 hours later, cells were washed twice in PBS and media was replaced with either 10 mM glucose or 10 mM galactose containing media.
(§4) Approximately 100 nL of each compound was pin-transferred in duplicate into the plates with a steel pin array using the CyBi-Well robot (CyBio). […] Compound-treated plates were incubated at 37° C. for 72 hours. […] Wells were then washed once and stored in PBS. Cell culture plates were stored at 4° C. until time of imaging, which was at most 24 hours after fixation.
(§5) Imaging was performed by Arrayscan VTi automated microscope (ThermoFisher Scientific) with the use of an automated plate stacker. Appropriate filter sets for the detection of the Hoescht fluorescent signal were used. Four non-overlapping images at 5× magnification (NA 0.25) were acquired for a field of view of 1.3 mm×1.3 mm per image. The plate stacker and microscope including an auto-focusing algorithm were controlled entirely with ArrayScan software. Images were captured and stored simultaneously in at least two independent locations. Image analysis was performed using the freely available open-source software package CellProfiler. […] Images were analyzed individually by first identifying nuclei using the Hoescht staining signal.
(§6) Total number of nuclei per field were recorded, and the four images per well were totaled to give the cell count per well. Computation was performed using a UNIX computer cluster. Appropriate masking of each nucleus was ensured by visually monitoring each batch at its onset and intermittently throughout the run.
(§7) The fibroblast cells were seeded on Day 0 and incubated for 24 hours in standard culture media.
(§8) Normalized cell counts were computed separately for each 96-well plate by dividing the cell count of each well with the trimmed mean (the average after discarding the largest and smallest value) of the cell counts for the 16 DMSO treated wells. […] The remaining replicate measurements were averaged, and fold changes were computed as the ratio between the average normalized counts for the glucose and galactose screens. To evaluate statistical significance, Z-scores were computed for each well against the DMSO (null) distribution and averaged Z-scores across replicates. Wells with average Z-score greater than 2.5 were considered significant.
(§9) By jointly analyzing the glucose and galactose results, a glucose-galactose cell growth ratio can be calculated (Sglu/gal) that represents the log10 fold-change in cell growth in a glucose rich media divided by the log10 fold-change in cell growth in a galactose rich media. […] Low Sglu/gal scores (e.g., ranging between approximately (−) 0.1 to (−) 0.7) may arise from inhibition of glycolysis or from inhibition of proliferation, since cells grown in glucose-rich media divide more rapidly.

[10] = system: MCH58 fibroblasts; assay: Glucose versus galactose cell growth screen (metabolic state-dependent lethality)
Method: as §1, §2, §3, §4, §5, §6, §7, §8, §9

[11] = approximately 10 μM compound, 72 hours, log10 fold change of normalized cell number in glucose versus galactose

NCCOP(=O)(O)O [PEA, phosphoethanolamine]
uncoupler-stimulated respiration in isolated mitochondria [1]: blocks uncoupler-stimulated respiration

Cc1cccc(CN2CCN([C@H](c3ccccc3)c3ccc(Cl)cc3)CC2)c1 [R-meclizine]
AMPK activation (phosphorylation) [2]: activate AMPK | affinity on the H1 receptor [3]: high affinity

Cc1cccc(CN2CCN([C@@H](c3ccccc3)c3ccc(Cl)cc3)CC2)c1 [S-meclizine, S-Meclizine]
AMPK activation (phosphorylation) [2]: activate AMPK | affinity on the H1 receptor [3]: much weaker affinity | PCYT2 binding and inhibition [4]: binD to, and inhibit | protection of STHdhQ111/111 cells after serum withdrawal [5]: is protective | basal glucose uptake [6]: promoted increased basal glucose uptake

CN(C)CCC(c1ccccc1)c1ccccn1 (stereo not shown) [pheniramine]
protection of cardiomyocytes against I/R (cell viability, Trypan blue) [7]: not observed

CN1[C@@H]2C[C@@H](OC(=O)[C@H](CO)c3ccccc3)C[C@H]1[C@@H]1O[C@@H]12 [scopolamine]
protection of cardiomyocytes against I/R (cell viability, Trypan blue) [7]: not observed

CN1[C@@H]2CC[C@H]1C[C@@H](OC(=O)C(CO)c1ccccc1)C2 (stereo partly shown) [atropine]
protection of cardiomyocytes against I/R (cell viability, Trypan blue) [7]: not observed

C=C(C)[C@H]1Cc2c(ccc3c2O[C@@H]2COc4cc(OC)c(OC)cc4[C@@H]2C3=O)O1 [rotenone]
protection of STHdhQ111/111 cells after serum withdrawal [5]: rescue | toxicity in worms (Varma et al.) [8]: strong developmental delay with severe toxicity

COc1ccc2c(c1)O[C@@H]1COc3cc(OC)c(OC)cc3[C@@H]1C2=O [Mundoserone]
Sglu/gal (log10 fold change) Score [9]: 0.57

C=C1CC[C@@H]2[C@](C)(CO)[C@H](O)CC[C@@]2(C)[C@@H]1C/C=C1/C(=O)OC[C@H]1O [andrographolide]
Sglu/gal (log10 fold change) Score [10, 11]: −0.46

CC[C@@]1(O)C(=O)OCc2c1cc1n(c2=O)Cc2cc3ccccc3nc2-1 [camptothecin]
Sglu/gal (log10 fold change) Score [10, 11]: −0.26

CC[n+]1c(-c2ccccc2)c2cc(N)ccc2c2ccc(N)cc21 [homidium bromide]
Sglu/gal (log10 fold change) Score [10, 11]: −0.54

CCCCCCc1ccc(O)cc1O.Nc1c2ccccc2nc2ccccc12 [acrisorcin]
Sglu/gal (log10 fold change) Score [10, 11]: −0.36

C[n+]1c2cc(N)ccc2cc2ccc(N)cc21.[Cl-] [acriflavinium hydrochloride]
Sglu/gal (log10 fold change) Score [10, 11]: −0.29

CN1CCN(C(c2ccccc2)c2ccc(Cl)cc2)CC1 (stereo not shown) [chlorcyclizine]
inhibitory activity against cell growth in galactose (SAR analysis) ([10]; galactose versus glucose): more potent than that of homopiperazine analogue

C[C@H]1CC[C@]2(NC1)O[C@H]1C[C@H]3[C@@H]4CC[C@H]5C[C@@H](O[C@@H]6O[C@H](CO)[C@H](O[C@@H]7O[C@H](CO)[C@@H](O)[C@H](O[C@@H]8OC[C@@H](O)[C@H](O)[C@H]8O)[C@H]7O[C@@H]7O[C@H](CO)[C@@H](O)[C@H](O)[C@H]7O)[C@H](O)[C@H]6O)CC[C@]5(C)[C@H]4CC[C@]3(C)[C@H]1[C@@H]2C [tomatine]
Sglu/gal (log10 fold change) Score [10, 11]: −0.64

COc1cc2c(cc1OC)[C@@H]1C(=O)c3ccc4oc(C(C)C)cc4c3O[C@@H]1CO2 [Isorotenone]
Sglu/gal (log10 fold change) Score [10, 11]: 0.71

COc1cc(C(=O)O)c2c(c1C)OC(=O)c1c(C)cc(O)c(C=O)c1O2 [Psoromic acid]
Sglu/gal (log10 fold change) Score [10, 11]: 0.35

COc1ccc(Cc2nccc3cc(OC)c(OC)cc23)cc1OC [Papaverine hydrochloride]
Sglu/gal (log10 fold change) Score [10, 11]: 0.30

COc1cc2c(cc1OC)C1C(=O)c3c(cc4c(c3O)C=CC(C)(C)O4)OC1CO2 (stereo not drawn) [Beta-toxicarol]
Sglu/gal (log10 fold change) Score [10, 11]: 0.82

Deguelin(-)
Sglu/gal (log10 fold change) Score [10, 11]: 0.69

CCCCc1ccc2[nH]c(NC(=O)OC)nc2c1 [Parbendazole]
Sglu/gal (log10 fold change) Score [10, 11]: −0.24

15-norcaryophyllen-3-one
Sglu/gal (log10 fold change) Score [10, 11]: −0.29

COc1ccc(CN(CCN(C)C)c2ccccn2)cc1 [pyrilamine]
protection of cardiomyocytes against I/R (cell viability, Trypan blue) [7]: not observed

CC(C)=CCC[C@]1(C)C=Cc2c(O)c3c(c(CC=C(C)C)c2O1)O[C@]12C(=C[C@@H]4C[C@H]1C(C)(C)O[C@@]2(C/C=C(/C)C(=O)O)C4=O)C3=O [gambogic acid]
Sglu/gal (log10 fold change) Score [10, 11]: −0.34

CC[C@@]1(O)C[C@H](O[C@H]2C[C@H](N(C)C)[C@H](O)[C@H](C)O2)c2c(cc3c(c2O)C(=O)c2c(O)cccc2C3=O)[C@H]1C(=O)OC [aklavine hydrochloride]
Sglu/gal (log10 fold change) Score [10, 11]: −0.33

CC[C@@]1(O)C[C@H](O[C@H]2C[C@H](N(C)C)[C@H](O)[C@H](C)O2)c2c(cc3c(c2O)C(=O)c2c(O)ccc(O)c2C3=O)[C@H]1C(=O)OC [pyrromycin]
Sglu/gal (log10 fold change) Score [10, 11]: −0.30

CC1(C)C(=O)C=C[C@@]2(C)C1=C(O)C(=O)[C@]1(C)[C@@H]2CC[C@@]2(C)[C@H](c3ccoc3)C[C@H]3O[C@]321 [cedrelone]
Sglu/gal (log10 fold change) Score [10, 11]: −0.22

[O-][n+]1ccccc1[S-].[O-][n+]1ccccc1[S-].[Zn+2] [pyrithione zinc]
Sglu/gal (log10 fold change) Score [10]: −0.25
